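A five-concentration, 48-hour dose response in 96-well plates underlies each endpoint, interpolated linearly between surrounding concentrations. At the GI50, growth is halved. TGI is the concentration that stops growth completely.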

We go through eight compounds from PubChem BioAssay (NCI).

Common to all, as to test: NCI anticancer screen, dose series, 48 h
The subject of test [1] is MOLT-4 leukemia.
Test [2] concerns HCT-15 colon.
Test [3] has as its system MCF7 breast.
Test [4] deals with NCI-H226 lung.
In test [5] the test system is A498 renal.
Test [6] deals with SF-539 CNS.
In test [7] the test system is SF-295 CNS.
Test [8] relates to M14 melanoma.
Test [9] concerns MDA-MB-231 breast.
Test [10] has as its system NCI-H23 lung.

As for `COc1ccc(/C=C(/c2ccccc2)[N+](=O)[O-])cc1`, the GI50 in [1] was 2.18 µM; in [2] it was 0.446 µM; in [3], 0.567 µM; in test [4], 1.95 µM; in test [5], 1.01 µM; in [6] it was 1.77 µM. Further, the GI50 is 2.29 µM in test [7], 1.42 µM in test [8], 1.59 µM in test [9] and 1.74 µM in test [10]. Moreover, the TGI in test [1] was determined as 6.28 µM; in [2] it was 1.86 µM; in [3] it was 2.68 µM; in [4], 4.43 µM; in test [5] it was 2.24 µM; in test [6], 3.18 µM. Further, the TGI in test [7] was found to be 5.22 µM; in [8], 2.85 µM; in test [9], 3.09 µM; in [10], 3.63 µM.
For `COC(=O)c1cc(/C=C/c2ccc(S(N)(=O)=O)cc2)ccc1O`, the GI50 was 73.1 µM in test [1]; 27 µM in test [2]; 30.7 µM in [3]; 21.4 µM in [4]; 0.0161 µM in test [5]; 18.4 µM in [6]. Further, the GI50 in [7] is 26.5 µM; in test [8], 35.3 µM; in [9] it was 24.9 µM; in test [10], above 100 µM. Further, the TGI was above 100 µM in [1]; above 100 µM in test [2]; above 100 µM in [3]; 52.9 µM in test [4]; 20.2 µM in test [5]; 47.4 µM in test [6]. Also, the TGI was above 100 µM in [7], above 100 µM in test [8], 60.5 µM in test [9] and above 100 µM in test [10].
Consider `CC1=C(C(=O)Nc2ccccc2)C(c2ccc(C3C(C(=O)Nc4ccccc4)=C(C)NC(C)=C3C(=O)Nc3ccccc3)cc2)C(C(=O)Nc2ccccc2)=C(C)N1`, for which the TGI in [1] was determined as 11.6 µM; in [2], 9 µM; in test [3] it was 14.7 µM; in test [4], 16 µM; in test [5], 24 µM; in [6], 5.97 µM. The TGI stood at 7.88 µM in test [7], 6.46 µM in test [8], 13.4 µM in test [9] and 8.65 µM in test [10].
On to `O=C(CSC(c1ccccc1)c1ccccc1)N/N=C/c1ccco1`, for which the GI50 was 1.64 µM in [1]; 2.12 µM in test [2]; 1.74 µM in [3]; 3 µM in [4]; 1.89 µM in [5]; 2.07 µM in [6]. Moreover, the GI50 in test [7] is 2.4 µM; in [8], 1.49 µM; in test [9], 1.35 µM; in [10], 1.6 µM. Moreover, the TGI in test [1] was 4.48 µM; in test [2], 4.38 µM; in [3], above 5.22 µM; in test [4] it was 17.1 µM; in test [5] it was 5.37 µM; in test [6] it was 7.55 µM. Besides, the TGI in [7] amounted to 12.5 µM; in test [8] it was 2.69 µM; in [9] it was 2.87 µM; in [10], 4.46 µM.
With `CCCCCc1ccc(S(=O)(=O)Nc2cc(-c3csc(NC(C)=O)n3)ccc2N2CCN(C)CC2)cc1`, the GI50 in test [1] was 2.43 µM; in test [2], 1.08 µM; in test [3], 1.6 µM; in test [4], 4.94 µM; in test [5] it was 6.23 µM; in test [6], 4.98 µM. Moreover, the GI50 was 4.9 µM in test [7], 2 µM in test [8], 4.75 µM in [9] and 4.78 µM in [10]. Also, the TGI in test [1] was 8.33 µM; in test [2], 4.49 µM; in test [3], 6.45 µM; in test [4], 10.7 µM; in test [5], 11.3 µM; in test [6], 9.63 µM. The TGI stood at 9.59 µM in test [7], 7.73 µM in test [8], 9.91 µM in [9] and 9.53 µM in test [10].
Regarding `CCN(CC)CCNC(=O)c1ccc(C)c(OCc2ccccc2)c1[N+](=O)[O-]`, the TGI in test [1] was 77.8 µM; in test [2], 47.4 µM; in test [3], above 53.1 µM; in test [4], 90.3 µM; in test [5], above 82.8 µM; in test [6], 70.9 µM. Further, the TGI in test [7] was 55.8 µM; in test [8], 32.3 µM; in test [9], above 100 µM; in test [10], above 100 µM.
For the compound `Cc1cc(C)n(-c2nnc3n2N=C(c2ccc(-c4ccccc4)cc2)CS3)n1`, the GI50 in test [1] was 3.66 µM; in [2] it was 3.51 µM; in test [3] it was 2.84 µM; in [4], 4.24 µM; in test [5], 2.03 µM; in test [6], 2.15 µM. For the same compound, the figures for the GI50 in [7], in test [9] and in test [10] were 2.64 µM, 3.22 µM and 4.79 µM, respectively. Also, the TGI in test [1] is above 100 µM; in test [2] it was above 100 µM; in test [3] it was above 100 µM; in [4] it was above 100 µM; in test [5] it was 7.09 µM; in [6], 5.2 µM. Also, the TGI in test [7] was 7.63 µM; in test [9], above 100 µM; in test [10], above 100 µM.
With `Nc1ccccc1SC1CC(=O)N(c2ccc(Cl)c(Cl)c2)C1=O` (stereo not drawn), the GI50 is 7.7 µM in test [1]; 28.6 µM in test [2]; 27.1 µM in test [3]; 14.6 µM in test [4]; 4.88 µM in test [5]; 63.6 µM in test [6]. Further, the GI50 was 10.1 µM in [7], 40.4 µM in test [8], 17.9 µM in test [9] and 23.8 µM in test [10]. Moreover, the TGI in [1] was above 100 µM; in [2], above 100 µM; in test [3], above 100 µM; in [4], 64.4 µM; in [5] it was 37.2 µM; in test [6], above 100 µM. Besides, the TGI in [7], in [8], in test [9] and in test [10] was above 100 µM in each case.
